For the assay, the target named is T1, casein kinase 1 epsilon (CK1 epsilon) (Homo sapiens, UniProt P49674).
T1 construct: Invitrogen Corporation (alternative)
Nature of the assay: Filter-plate assay of ATP-33P, inhibition of phosphorylation of casein by CK1 epsilon. It is filed as biochemical. The conditions noted are these: ATP-33P filtration, cold ATP 10 μM final, 2 hours at ambient temperature, read-out: CK1 epsilon Cl50. The method, then:
The capacity of the compounds of the invention to inhibit the phosphorylation of casein by casein kinase 1 epsilon and delta may be evaluated according to the procedure described in US 2005/0131012.
Filter-Plate Assay of ATP-^33P for the Screening of CK1 Epsilon Inhibitors:
The effect of the compounds on inhibition of the phosphorylation of casein by the enzyme casein kinase 1 epsilon (CK1 epsilon) is measured, using a casein assay with filtration of ATP-^33P in vitro.
Casein kinase 1 epsilon (0.58 mg/ml) is obtained via fermentation and purification processes performed according to methods that are well known to those skilled in the art, or may also be obtained from Invitrogen Corporation™ (human CK1 epsilon).
The compounds are tested at five different concentrations so as to generate IC50 values, i.e. the concentration at which a compound is capable of inhibiting the enzymatic activity by 50%, or alternatively the percentage of inhibition at a concentration of 10 micromolar.
“U”-bottomed Falcon plates are prepared by placing 5 μl of solutions of the compounds according to the invention at concentrations of 10, 1, 0.1, 0.01 or 0.001 μM in different wells. The solutions of the compounds according to the invention at these various concentrations are prepared by diluting in a test buffer (50 mM Tris, pH 7.5, […], 2 mM DTT and 1 mM EGTA) a stock solution in DMSO at a concentration of 10 mM. Next, 5 μl of dephosphorylated casein are added to a final concentration of 0.2 μg/μl, 20 μl of CK1 epsilon to a final concentration of 3 ng/μl, and 20 μl of ATP-^33P to a final concentration of 0.02 μCi/μl mixed with cold ATP (10 μM final—approximately 2×10^6 CPM per well). The final total test volume per well is equal to 50 μl.
The “U”-bottomed Falcon® test plate mentioned above is vortexed, and then incubated at ambient temperature for 2 hours. After 2 hours, the reaction is stopped by adding an ice-cold solution of 65 μl of ATP (2 mM) prepared in test buffer.
100 μl of the reaction mixture are then transferred from the “U”-bottomed Falcon® plate into Millipore® MAPH filter plates, preimpregnated with 25 μl of ice-cold 100% TCA. […]
The plates are left to dry overnight at ambient temperature. […] The radiation emitted by each well is then measured for 2 minutes in a Packard® Topcount NXT scintillation counter, in which the values of CPM/well are measured.
The percentage inhibition of the capacity of the enzyme to phosphorylate the substrate (casein) is determined for each concentration of compound tested. These inhibition data expressed as percentages are used to calculate the IC50 value for each compound compared with the controls.
The kinetic studies determined the KM value for ATP as being 21 μM in this test system.

The values that follow come from US20110312934A1, “2-ALKYL-6-CYCLOAMINO-3-(PYRIDIN-4-YL)IMIDAZO[1,2-B]-PYRIDAZINE DERIVATIVES, PREPARATION THEREOF, AND THERAPEUTIC APPLICATION THEREOF” (SANOFI-AVENTIS, priority 2008, published 2011).

Each structure is given as a SMILES string.

T1 sequence (P49674 whole entry): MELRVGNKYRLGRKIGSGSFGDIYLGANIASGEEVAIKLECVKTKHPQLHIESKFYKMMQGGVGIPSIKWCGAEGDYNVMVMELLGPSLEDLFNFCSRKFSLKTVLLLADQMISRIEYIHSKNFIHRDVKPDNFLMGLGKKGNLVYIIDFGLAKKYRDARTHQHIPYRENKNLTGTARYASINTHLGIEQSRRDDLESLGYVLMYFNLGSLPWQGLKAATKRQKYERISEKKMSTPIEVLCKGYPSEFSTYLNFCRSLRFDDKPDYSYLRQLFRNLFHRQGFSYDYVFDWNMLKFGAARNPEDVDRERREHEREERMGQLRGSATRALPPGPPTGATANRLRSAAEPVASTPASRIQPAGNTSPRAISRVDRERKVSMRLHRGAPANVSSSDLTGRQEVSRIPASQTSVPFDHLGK

Regarding `Cc1nc2ccc(N3CCNCC3)nn2c1-c1ccncc1` [Compound 1, 2-Methyl-6-piperazin-1-yl-3-pyridin-4-yl-imidazo[1,2-b]pyridazine], the IC50 is 0.057 µM.
